Measured values published in publication PMC9481026 (PLoS ONE, 2022).
Values after ≈ are worked out from the molar mass of the structure shown. Like-named read-outs stand apart in the source and are kept apart here.

How the values were obtained:
RVFV MP-12 = test: microbe, parasite or virus in culture; format: cell-based, Rift Valley fever virus; settings: for EC50: read-out: Estimated EC50
C. neoformans = test: microbe, parasite or virus in culture; format: cell-based; settings: for MIC80: Cryptococcus neoformans, read-out: C. neoformans (MIC80, μM)
Human RNase H1 = target: T1, Human RNase H1 (Homo sapiens, UniProt O60930); test: biochemical
T1 construct: made in house; host or cells: E. coli
T1 sequence (O60930 1-286): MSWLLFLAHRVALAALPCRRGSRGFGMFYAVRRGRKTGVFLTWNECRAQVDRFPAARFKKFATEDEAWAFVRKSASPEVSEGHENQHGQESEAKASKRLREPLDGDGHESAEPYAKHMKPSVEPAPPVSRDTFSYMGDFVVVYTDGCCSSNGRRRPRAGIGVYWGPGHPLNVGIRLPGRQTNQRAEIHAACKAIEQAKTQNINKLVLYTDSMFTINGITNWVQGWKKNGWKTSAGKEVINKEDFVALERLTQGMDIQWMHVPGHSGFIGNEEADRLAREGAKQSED

RVFV strain MP-12 [1] = test: microbe, parasite or virus in culture; format: cell-based, Rift Valley fever virus
Staphylo-coccus spp. = test: organism not typed; format: cell-based
in vitro = settings: African green monkey
LACV = test: microbe, parasite or virus in culture; format: cell-based, La Crosse virus; settings: La Crosse virus, Vero C1008, 24 h, read-out: LACV EC50
RVFV strain MP-12 [2] = test: microbe, parasite or virus in culture; format: cell-based, Rift Valley fever virus; settings: Rift Valley fever virus, A549, 24 h, read-out: A549 EC50
ZIKV = test: microbe, parasite or virus in culture; format: cell-based, Zika virus; settings: Zika virus, Vero C1008, 48 h, read-out: ZIKV EC50
[3] = read-out: Human RNase H1 (IC50)
[4] = Rift Valley fever virus, Vero, 24 h

Row | SMILES | EC50 (RVFV MP-12) [µM] | C. neoformans (MIC80, μM) (C. neoformans) [µM] | CC50 (Vero cells) [µM] | IC50 (Human RNase H1; [3]) [µM] | further results
1 | CCOC(=O)c1sc(NC(=O)CSc2nnc(Cc3ccccc3)o2)c(C#N)c1C [Compound 6] | > 120 |  |  |  | 
2 | O=c1c(O)c(-c2ccc(O)c(O)c2)oc2cc(O)c(O)c(O)c12 [Compound 7, Quercetagetin] |  |  |  |  | EC50 (RVFV MP-12; Rift Valley fever virus, Vero): > 120 µM
3 | NC(=O)c1c(N)sc2c1CCCCC2 [Compound 22] | > 120 |  |  |  | 
4 | CC(C)c1cccc(=O)c(O)c1 [Compound 47, β-thujaplicin, reference compound] |  |  |  |  | EC50 (RVFV MP-12; Rift Valley fever virus, Vero): > 120 µM
5 | CC(C)c1ccc(O)c(=O)cc1 [Compound 48, γ -thujaplicin, reference compound] |  |  |  |  | EC50 (RVFV MP-12; Rift Valley fever virus, Vero): > 120 µM
6 | Cc1cc(O)c(=O)c(O)cc1C(=O)c1ccccc1 [Compound 111] |  | 36 | > 120 | 48 | EC50 (RVFV strain MP-12 [1]; read-out: RVFV (EC50)): 19 µM
7 | Cc1cc(O)c(=O)c(O)cc1-c1ccccc1 [Compound 113] |  | 24 | > 120 | 174 | EC50 (RVFV strain MP-12 [1]; read-out: RVFV (EC50)): 10.3 µM
8 | Cc1cc(O)c(=O)c(O)cc1C(=O)c1ccc(-c2ccccc2)cc1 [Compound 118] |  | 15 | > 120 | > 500 | EC50 (RVFV strain MP-12 [1]; read-out: RVFV (EC50)): 11 µM
9 | Cc1cc(O)c(=O)c(O)cc1C(=O)C1CCCCC1 [Compound 120] |  | 12 | > 120 | 81 | EC50 (RVFV strain MP-12 [1]; read-out: RVFV (EC50)): 15.6 µM
10 | O=C(O)CC(=O)CC(=O)c1cccs1 [Compound 129] | > 120 |  |  |  | 
11 | O=C1c2ccccc2C(=O)N1O [Compound 138] | > 120 |  |  |  | 
12 | COC(=O)c1c(C)cc(O)c(=O)c(O)c1O [Compound 196] |  |  | > 120 | 408 | CC50 (HepDES19): 6 µM; Staphylo-coccus spp. (MIC80, μM) (Staphylo-coccus spp.): 67 µM; EC50 (RVFV strain MP-12 [1]; read-out: RVFV (EC50)): 23.9 µM
13 | CC1=CC(O)N(O)C(O)=C1C(C)=Nc1ccccc1N (stereo not drawn) [Compound 208] | 14 | 30 | > 120 | 194 | CC50 (HepDES19): 14.4 µM; EC50 (RVFV strain MP-12 [1]; read-out: RVFV (EC50)): > 120 µM
14 | Cc1ccc(O)c(=O)c(O)c1 [Compound 210] | 8 | 15 | > 120 | 85 | EC50 (RVFV strain MP-12 [1]; read-out: EC50): 11.8 µM
15 | Cc1cc(O)c(=O)c(O)cc1-c1cccc(-c2cccc3ccccc23)c1 [Compound 234] | 19 |  | > 120 |  | 
16 | Cc1cc(O)c(=O)c(O)cc1C(=O)c1ccc(-c2ccncc2)cc1 [Compound 260] |  | 50 | > 120 | 277 | CC50 (HepDES19): 45 µM; EC50 (RVFV strain MP-12 [1]; read-out: RVFV (EC50)): 31.6 µM
17 | O=c1c(O)ccc(-c2ccco2)cc1O [Compound 265] |  | 11 | > 120 | 57 | Staphylo-coccus spp. (MIC80, μM) (Staphylo-coccus spp.): 30 µM; EC50 (RVFV strain MP-12 [1]; read-out: RVFV (EC50)): 15.4 µM
18 | Cc1cc(O)c(=O)c(O)cc1S(=O)(=O)c1ccccc1 [Compound 336] |  |  |  |  | CC50 (in vitro; CC50): 70 µM; MIC80 (C. neoformans): 50 µM (≈ 14.6 µg/mL); CC50 (Vero cells; African green monkey): 65.8 µM; IC50 (Human RNase H1): 85 µM; EC50 (RVFV MP-12; Rift Valley fever virus, Vero): 3 µM; EC50 (RVFV strain MP-12 [1]; [4]): 9 µM
19 | Cc1ccc(/C=C/C(=O)c2ccccc(=O)c2O)cc1 [Compound 340] | 3 | 49 | 70 | > 500 | CC50 (HepDES19): 18.7 µM; EC50 (RVFV strain MP-12 [1]; read-out: EC50): 27.3 µM
20 | O=C(/C=C/c1cccc(Br)c1)c1ccccc(=O)c1O [Compound 341] |  |  |  |  | CC50 (in vitro; CC50): > 120 µM; MIC80 (C. neoformans): 24 µM (≈ 7.95 µg/mL); MIC80 (Staphylo-coccus spp.; read-out: Staphylo-coccus spp. (MIC80, μM)): 44 µM (≈ 14.6 µg/mL); IC50 (Human RNase H1): > 500 µM; EC50 (RVFV MP-12; Rift Valley fever virus, Vero): 2 µM; EC50 (RVFV strain MP-12 [1]; [4]): 25.2 µM

Row | SMILES | EC50 (RVFV MP-12) [µM] | C. neoformans (MIC80, μM) (C. neoformans) [µM] | CC50 (Vero cells) [µM] | IC50 (Human RNase H1; [3]) [µM] | further results
21 | COc1ccc(/C=C/C(=O)c2ccccc(=O)c2O)cc1 [Compound 342] | 2 | 24 | > 120 | > 500 | CC50 (HepDES19): 30.4 µM; EC50 (RVFV strain MP-12 [1]; read-out: EC50): 55.5 µM
22 | CSc1cccc(O)c(=O)c1O [Compound 385] |  | 24 | > 120 | 176 | CC50 (HepDES19): 100 µM; EC50 (RVFV strain MP-12 [1]; read-out: RVFV (EC50)): 25.2 µM
23 | CC(=Nc1ccccc1F)c1c(C)cc(=O)n(O)c1O [Compound 516] | 19 |  | > 120 |  | 
24 | COc1ccc(CON=C(C)c2c[nH]c(=O)[nH]c2=O)cc1 [Compound 522] | > 1 |  | 1 |  | 
25 | Cc1cc(O)c(=O)c(O)cc1C(=O)NCc1ccc(-c2ccccc2)cc1 [Compound 539] | 10 | 4.5 |  | 105 | CC50 (HepDES19): 3.6 µM; Staphylo-coccus spp. (MIC80, μM) (Staphylo-coccus spp.): 38 µM; EC50 (RVFV strain MP-12 [1]; read-out: EC50): 18.6 µM
26 | COc1ccc(Cl)cc1C(=O)Sc1cccccc1=O [Compound 681] | > 2 |  | 2 |  | 
27 | CCCCCCS(=O)(=O)c1ccc(S(=O)(=O)CCCCCC)c(O)c(=O)c1O [Compound 700] |  |  |  |  | CC50 (in vitro; Estimated CC50): > 120 µM; Estimated EC50 (RVFV MP-12): inactive; EC50 (RVFV MP-12; Rift Valley fever virus, Vero): > 120 µM
28 | O=c1c(O)c(SCc2ccccc2)ccc(SCc2ccccc2)c1O [Compound 703] | 9 | 7.0 |  | 61 | CC50 (HepDES19): 8.2 µM; Staphylo-coccus spp. (MIC80, μM) (Staphylo-coccus spp.): 13 µM; EC50 (RVFV strain MP-12 [1]; read-out: EC50): 16.1 µM
29 | Cc1cc(O)c(=O)c(O)cc1C(=O)NCCc1ccccc1 [Compound 710] | 17 |  | > 120 |  | 
30 | Cc1cc(O)c(=O)c(O)cc1C(=O)Nc1ccc(F)cc1F [Compound 711] | 17 |  | > 120 |  | 
31 | Cc1cc(O)c(=O)c(O)cc1C(=O)N1CCSC1 [Compound 712] | > 20 |  | 20 |  | 
32 | Cc1cc(O)c(=O)c(O)cc1C(=O)Nc1cccc(Cc2ccccc2)c1 [Compound 799] | 17 |  | 62 |  | 
33 | Cc1ccc(CNC(=O)c2cc(O)c(=O)c(O)cc2C)c(C)c1 [Compound 809] | 17 |  | 64 |  | 
34 | Cc1cc(O)c(=O)c(O)cc1C(=O)Nc1cccc(OCc2ccccc2)c1 [Compound 836] | 13 |  | > 120 |  | 
35 | Cc1ccc(Sc2cccc(O)c(=O)c2O)cc1 [Compound 838] | 8 | 1.0 |  | 100 | CC50 (HepDES19): 18.6 µM; EC50 (RVFV strain MP-12 [1]; read-out: EC50): 12.7 µM
36 | Cc1cc(O)c(=O)c(O)cc1C(=O)N[C@@H](CCC(=O)OC(C)(C)C)C(=O)OC(C)(C)C [Compound 867] |  |  |  |  | EC50 (LACV): > 120 µM; EC50 (RVFV strain MP-12 [2]): 33 µM; CC50 (in vitro; CC50): > 120 µM; CC50 (in vitro; Vero CC50): > 120 µM; MIC80 (C. neoformans): 9 µM (≈ 3.94 µg/mL); EC50 (ZIKV): > 120 µM; EC50 (RVFV MP-12; Rift Valley fever virus, Vero): 6.66 µM; EC50 (RVFV strain MP-12 [1]; [4]): 8.7 µM; EC50 (RVFV strain MP-12 [1]; Rift Valley fever virus, Vero, read-out: Vero EC50): 8.7 µM
37 | Cc1cc(O)c(=O)c(O)cc1C(=O)N1CCN(C(=O)C2COc3ccccc3O2)CC1 (stereo not drawn) [Compound 876] |  |  | > 120 |  | 
38 | Cc1cc(O)c(=O)c(O)cc1C(=O)N1CCN(c2ccc([N+](=O)[O-])c3nonc23)CC1 [Compound 920] | 19 |  | > 120 |  | 
39 | Cc1cc(O)c(=O)c(O)cc1C(=O)NCc1ccc(N2CCCC2)cc1 [Compound 1019] | 19 |  | > 120 |  | 
